Laboratory results taken from ChEMBL document CHEMBL1147975, “Synthesis, structure, and structure-activity relationship analysis of enamines as potential antibacterials” (2007).
In brackets after ≈: the same amount, converted by molar mass.

Assays:
Assay type in all cases: functional
Bacillus subtilis = assay: Antibacterial activity against Bacillus subtilis ATCC 6633 after 24 hrs by MTT method; settings: ATCC 6633, 24 h
Escherichia coli = assay: Antibacterial activity against Escherichia coli ATCC 35218 after 24 hrs by MTT method; settings: ATCC 35218, 24 h
Candida albicans = assay: Antifungal activity against Candida albicans ATCC 10231 after 48 hrs by MTT method; settings: ATCC 10231, 48 h
Aspergillus niger = assay: Antifungal activity against Aspergillus niger ATCC 16404 after 48 hrs by MTT method; settings: ATCC 16404, 48 h
Staphylococcus aureus = assay: Antibacterial activity against Staphylococcus aureus ATCC 6538 after 24 hrs by MTT method; settings: ATCC 6538, 24 h
Pseudomonas fluorescens = assay: Antibacterial activity against Pseudomonas fluorescens ATCC 13525 after 24 hrs by MTT method; settings: ATCC 13525, 24 h
Trichophyton rubrum = assay: Antifungal activity against Trichophyton rubrum ATCC 10218 after 48 hrs by MTT method; settings: ATCC 10218, 48 h

Structure (SMILES) | MIC (Bacillus subtilis) [µg/mL] | MIC (Escherichia coli) [µg/mL] | MIC (Candida albicans) [µg/mL] | MIC (Aspergillus niger) [µg/mL] | MIC (Staphylococcus aureus) [µg/mL] | MIC (Pseudomonas fluorescens) [µg/mL] | MIC (Trichophyton rubrum) [µg/mL]
CCOC(=O)/C(=C\Nc1ccccc1Cl)c1ccc(Cl)cc1 | > 50 | 42.5 (≈ 126 µM) | > 50 | > 50 | > 50 | > 50 | 
CCOC(=O)/C(=C\Nc1ccc(O)cc1)c1ccc(OC)cc1 | > 50 | > 50 | > 50 | > 50 | 7.9 (≈ 25.2 µM) | > 50 | 
CCOC(=O)/C(=C/Nc1ccc(Br)cc1)c1ccc(OC)cc1 | > 50 | > 50 | > 50 | > 50 | > 50 | 31.7 (≈ 84.3 µM) | 
CCOC(=O)/C(=C/Nc1cc(Br)c(OC)c(Br)c1)c1ccc(OC)cc1 | > 50 | > 50 | > 50 | > 50 | > 50 | 33 (≈ 68 µM) | 
CCOC(=O)/C(=C\Nc1cc(Br)c(OC)c(Br)c1)c1ccc(OC)cc1 | > 50 | > 50 | > 50 | > 50 | > 50 | > 50 | > 50
CCOC(=O)/C(=C/Nc1cc(OC)cc(OC)c1)c1ccc(OC)cc1 | > 50 | 41.5 (≈ 116 µM) | > 50 | > 50 | 15.8 (≈ 44.2 µM) | 25.2 (≈ 70.5 µM) | 
CCOC(=O)/C(=C\Nc1ccc(Br)cc1)c1ccc(OC)cc1 | > 50 | > 50 | > 50 | > 50 | > 50 | > 50 | 
CCOC(=O)/C(=C/Nc1ccc(O)cc1)c1ccc(OC)cc1 | > 50 | > 50 | > 50 | > 50 | 3.8 (≈ 12.1 µM) | > 50 | 
NC[C@H]1O[C@H](O[C@H]2[C@H](O)[C@@H](O[C@H]3O[C@H](CO)[C@@H](O)[C@H](N)[C@H]3O)[C@H](N)C[C@@H]2N)[C@H](O)[C@@H](O)[C@@H]1O [KANAMYCIN] | 0.39 (≈ 0.805 µM) | 3.9 (≈ 8.05 µM) |  |  | 1 (≈ 2.06 µM) | 3.9 (≈ 8.05 µM) | 
CCOC(=O)/C(=C\Nc1cc(OC)cc(OC)c1)c1ccc(OC)cc1 | > 50 | > 50 | > 50 | > 50 | 43.5 (≈ 122 µM) | 30 (≈ 83.9 µM) | 

Continued, values first:

MIC (Bacillus subtilis) [µg/mL] | MIC (Escherichia coli) [µg/mL] | MIC (Candida albicans) [µg/mL] | MIC (Aspergillus niger) [µg/mL] | MIC (Staphylococcus aureus) [µg/mL] | MIC (Pseudomonas fluorescens) [µg/mL] | MIC (Trichophyton rubrum) [µg/mL] | Structure (SMILES)
48.2 (≈ 143 µM) | > 13.5 | > 50 | > 50 | 1.9 (≈ 5.63 µM) | 31.5 (≈ 93.3 µM) |  | CCOC(=O)/C(=C/Nc1cc(F)cc(F)c1)c1ccc(Cl)cc1
> 50 | > 50 | > 50 | > 50 | 22.8 (≈ 68.4 µM) | 31.5 (≈ 94.5 µM) |  | CCOC(=O)/C(=C/Nc1cc(F)cc(F)c1)c1ccc(OC)cc1
42 (≈ 125 µM) | 42.5 (≈ 126 µM) | > 50 | > 50 | > 50 | 29.5 (≈ 87.7 µM) |  | CCOC(=O)/C(=C/Nc1ccc(Cl)cc1)c1ccc(Cl)cc1
> 50 | > 50 | > 50 |  | 0.9 (≈ 2.85 µM) | > 50 |  | CCOC(=O)/C(=C/Nc1ccc(C)cc1)c1ccc(Cl)cc1
> 50 | > 50 | > 50 | > 50 | > 50 | > 50 |  | CCOC(=O)/C(=C\Nc1cc(F)cc(F)c1)c1ccc(OC)cc1
> 50 | > 50 | > 50 | > 50 | > 50 | > 50 |  | CCOC(=O)/C(=C/Nc1ccc(Br)cc1)c1ccc(Cl)cc1
> 50 | > 50 | > 50 | > 50 | > 50 | > 50 |  | CCOC(=O)/C(=C\Nc1cc(F)cc(F)c1)c1ccc(Cl)cc1
> 50 | > 50 | > 50 | > 50 | 1.1 (≈ 2.97 µM) | 25.7 (≈ 69.3 µM) |  | CCOC(=O)/C(=C/Nc1cc(Cl)cc(Cl)c1)c1ccc(Cl)cc1
> 50 | > 50 | > 50 | > 50 | > 50 | > 50 |  | CCOC(=O)/C(=C\Nc1cc(Cl)cc(Cl)c1)c1ccc(Cl)cc1
42.2 (≈ 115 µM) | 42.2 (≈ 115 µM) | > 50 | > 50 | 20.2 (≈ 55.2 µM) | 27.8 (≈ 75.9 µM) |  | CCOC(=O)/C(=C/Nc1cc(Cl)cc(Cl)c1)c1ccc(OC)cc1
> 50 | > 50 | > 50 | > 50 | > 50 | 33.8 (≈ 92.3 µM) |  | CCOC(=O)/C(=C\Nc1cc(Cl)cc(Cl)c1)c1ccc(OC)cc1
> 50 | > 50 | > 50 | > 50 | > 50 | 32.2 (≈ 95.8 µM) |  | CCOC(=O)/C(=C\Nc1ccc(Cl)cc1)c1ccc(Cl)cc1
> 50 | > 50 | > 50 | > 50 | > 50 | > 50 |  | CCOC(=O)/C(=C\Nc1ccc(C)cc1)c1ccc(Cl)cc1
43.8 (≈ 130 µM) | 38.8 (≈ 115 µM) | > 50 | > 50 | > 50 | 35.3 (≈ 105 µM) |  | CCOC(=O)/C(=C/Nc1ccccc1Cl)c1ccc(Cl)cc1
> 50 | > 50 | > 50 | > 50 | > 50 | > 50 |  | CCOC(=O)/C(=C\Nc1ccc(Br)cc1)c1ccc(Cl)cc1
